Data from patent US20250332112A1, “IONIZABLE CATIONIC LIPIDS FOR LIPID NANOPARTICLES” (GENEVANT SCIENCES GMBH, priority 2022, published 2025).

Key:
[1] = test system: luciferase activity in the liver; test: Luciferase activity in liver after intravenous luciferase mRNA LNP; type: in vivo; conditions: 0.5 mg/kg IV, 6 h post-IV administration, BALB/c mice (n = 4)
Description: Frozen aliquots of liver were thawed and homogenized in 1 mL of 1×CCLR (Cell Culture Lysis Reagent) using a FastPrep® homogenizer. The homogenate was then centrifuged at 16,000 RPM for 10 minutes at 4° C. Twenty (20) μL of the supernatant was loaded into a 96-well white plate and luminescence measured following addition of luciferase reagent (Promega Luciferase Assay System). Luciferase activity was determined by comparing luminescence of the homogenized samples to luciferase protein standards. To account for any quenching of luminescence by components in the liver homogenate, luciferase was added to the liver homogenates of untreated animals and the resulting luminescence measured. The resulting quench factor was applied to all samples to obtain the corrected luciferase activity, and normalized per unit mass of tissue analyzed.

[2] = Parent ionizable lipid remaining in liver at 6 h after luciferase mRNA LNP (LC-MS); type: in vivo; conditions: 6 h after IV 0.5 mg/kg Luciferase mRNA LNP
Description: Liver tissues were treated with PBS and homogenized with a FastPrep machine, 3 cycles of 5 m/s×15 s. Homogenates from the PBS-treated control animals was pooled and used for standard curve preparation. Samples were extracted into a deep well plate with 250 μL of an internal suitability standard. Plates were centrifuged for 15 min at 4° C. and 2000 rpm. Analysis was performed using an Agilent 6520 QTOF coupled to an Agilent 1290 UHPLC, using reverse-phase LC separation. Quantitation of the ionizable lipid was by MS/MS against a calibration curve spiked into appropriately matched blank matrix. Calibration used a similar class of synthetic lipid as internal standard.
At 6 h post-dose, some treatment groups reported lower levels of novel ionizable lipid in mouse liver compared to the benchmark (Tables 16-18).

[3] = Particle characteristics of LNPs containing luciferase mRNA and novel ionizable lipids; type: physicochemical; conditions: luciferase mRNA LNP 1.6:54.6:32.8:10.9
Description: The lipid solution contains 4 components: a PEG-conjugated lipid, an ionizable lipid, cholesterol, and a phospholipid (e.g., DSPC). Lipid stocks were prepared using the lipid identities and molar ratios as described, to achieve a total concentration of ˜7 mg/mL in 100% ethanol. Firefly luciferase mRNA (TriLink Biotechnologies, L-7202) or ornithine transcarbamylase (OTC) mRNA (TriLink Biotechnologies, custom designed) was diluted in acetate, pH 5 buffer and nuclease free water to achieve a target concentration of 0.366 mg/mL mRNA in 100 mM acetate, pH 5. Equal volumes of the lipid and nucleic acid solutions were blended at a flow rate of 400 mL/min through a T-connector, and diluted with ˜4 volumes of PBS, pH 7.4. Formulations were placed in Slide-A-Lyzer dialysis units (MWCO 10,000) and dialyzed overnight against 10 mM Tris, 500 mM NaCl, pH 8 buffer. Following dialysis, the formulations were concentrated to ˜0.6 mg/mL using VivaSpin concentrator units (MWCO 100,000) and dialyzed overnight against 5 mM Tris, 10% sucrose, pH 8 buffer. Formulations were filtered through a 0.2 μm syringe filter (PES membrane). Nucleic acid concentration was determined by the RiboGreen assay. Particle size and polydispersity were determined using a Malvern Nano Series Zetasizer.
LNP formulations containing novel ionizable lipids all produced stable particles with high encapsulation efficiency (Tables 1-7).

[4] = Table 18, female BALB/c mice (n = 4)
[5] = Table 16, female BALB/c mice (n = 4)

## CCCCCCCCCCN(C(=O)CCCN(C)C)C(CCCCCCCCC)CCCCCCC(F)(F)C(=O)OCCC(CCCCCCC)CCCCCCC (stereo not shown) [Compound 18, 3-Heptyldecyl 9-(N-decyl-4-(dimethylamino)butanamido)-2,2-difluorooctadecanoate]
[1]; Table 13
  Luc Activity: 4.32E+07 pg/g liver
[2]; Table 17, female mice (n = 4)
  Parent ionizable lipid remaining in liver, Average: 17.02 nmol/g liver
[3]; Table 6
  Final Product % EE: 98%
  Final Product PDI: 0.07
  Final Product Z-avg: 73 nm

## CCCCCCCCCCN(C(=O)CCCN(C)C)C(CCCCCCCCC)CCCCCCC(F)(F)C(=O)OC(CCCCC)CCCCC (stereo not shown) [Compound 19, Undecan-6-yl 9-(N-decyl-4-(dimethylamino)butanamido)-2,2-difluorooctadecanoate]
[1]; Table 13
  Luc Activity: 1.25E+06 pg/g liver
[2]; Table 17, female mice (n = 4)
  Parent ionizable lipid remaining in liver, Average: 20.22 nmol/g liver
[3]; Table 6
  Final Product % EE: 99%
  Final Product PDI: 0.09
  Final Product Z-avg: 71 nm

## CCCCCCCCCCN(C(=O)CCCN(C)C)C(CCCCCCCCC)CCCCCCC(F)(F)C(=O)OCCC(CCCCC)CCCCC (stereo not shown) [Compound 20, 3-Pentyloctyl 9-(N-decyl-4-(dimethylamino)butanamido)-2,2-difluorooctadecanoate]
[1]; Table 14
  Luc Activity: 2.71E+07 pg/g liver
[2]; [4]
  Parent ionizable lipid remaining in liver, Average: 1.82 nmol/g liver
[3]; Table 7
  Final Product % EE: 98%
  Final Product PDI: 0.08
  Final Product Z-avg: 72 nm

## CCCCCCCCCCCCCOC(=O)CCCCC(CCCCCCCCCC)N(CCN(C)C)C(=O)CCCCC(=O)OCC(CCCC)CCCCCC (stereo not shown) [Compound 23, tridecyl 6-{6-[(2-butyloctyl)oxy]-N-[2-(dimethylamino)ethyl]-6-oxohexanamido}hexadecanoate]
[1]; Table 10
  Luc Activity: 4.44E+06 pg/g liver
[2]; [5]
  Parent ionizable lipid remaining in liver, Average: 31.85 nmol/g liver
[3]; Table 3
  Final Product % EE: 97%
  Final Product PDI: 0.06
  Final Product Z-avg: 69 nm

## CCCCCCCCCCCCCOC(=O)CCCCC(CCCCCCCCCC)N(CCN(C)C)C(=O)CCCCCCC(=O)OCC(CCCC)CCCCCC (stereo not shown) [Compound 24, Tridecyl 6-(8-((2-butyloctyl)oxy)-N-(2-(dimethylamino)ethyl)-8-oxooctanamido)-hexadecanoate]
[1]; Table 10
  Luc Activity: 3.98E+06 pg/g liver
[2]; [5]
  Parent ionizable lipid remaining in liver, Average: 35.16 nmol/g liver
[3]; Table 3
  Final Product % EE: 96%
  Final Product PDI: 0.08
  Final Product Z-avg: 72 nm

## CCCCCCCCCCN(C(=O)CCCN(C)C)C(CCCCCCCCC)CC(=O)OCC(CCCCCC)CCCCCCCC (stereo not shown) [Compound 32, 2-hexyldecyl 3-[N-decyl-4-(dimethylamino)-butanamido]dodecanoate]
[1]; Table 10
  Luc Activity: 3.07E+07 pg/g liver
[2]; [5]
  Parent ionizable lipid remaining in liver, Average: 21.66 nmol/g liver
[3]; Table 3
  Final Product % EE: 99%
  Final Product PDI: 0.02
  Final Product Z-avg: 85 nm

## CCCCCCCCCC(CCCCCCC(F)C(=O)OCCC(CCCCC)CCCCC)N(CCCCCC(F)C(=O)OCCC(CCCCC)CCCCC)C(=O)CCCN(C)C (stereo not shown) [Compound 34, 3-pentyloctyl 9-[4-(dimethylamino)-N-{6-fluoro-7-oxo-7-[(3-pentyloctyl)oxy]heptyl}butanamido]-2-fluorooctadecanoate]
[1]; Table 14
  Luc Activity: 1.91E+06 pg/g liver
[2]; [4]
  Parent ionizable lipid remaining in liver, Average: 1.78 nmol/g liver
[3]; Table 7
  Final Product % EE: 99%
  Final Product PDI: 0.10
  Final Product Z-avg: 70 nm

## CCCCCCCCCCON(C(=O)CCCN(C)C)C(CCCCCCCCC)CCCCCCC(F)C(=O)OCCC(CCCCC)CCCCC (stereo not shown) [Compound 38, 3-pentyloctyl 9-[N-(decyloxy)-4-(dimethylamino)butanamido]-2-fluorooctadecanoate]
[1]; Table 14
  Luc Activity: 2.13E+07 pg/g liver
[2]; [4]
  Parent ionizable lipid remaining in liver, Average: 3.14 nmol/g liver
[3]; Table 7
  Final Product % EE: 98%
  Final Product PDI: 0.17
  Final Product Z-avg: 65 nm
